We go through four compounds from patent US8445466B2, “Stable aqueous compositions comprising amide-protected bioactive creatine species and uses thereof” (priority 2010, dated 2013).

The subject of series [1] is Division IA college football players. The following applies: up to 21-months; 15.75 g/day for five days, average 5 g/day thereafter; cited from earlier work.
The conditions of series [2]: cited from earlier work.
The subject of series [3] is patients with McArdle disease. The settings on record: cited from earlier work.
Series [4] relates to small cohorts of athletes. The settings on record: oral; short term (5 days), medium term (9 weeks) and long term (up to 5 years); cited from earlier work.
Series [5] has as its system highly trained adolescent (mean age 16) fin swimmers. The following applies: five days of supplementation; cited from earlier work.
The test system of series [6] is young adult, vegetarian subjects. The settings on record: oral, 5 grams daily for six weeks, 45 subjects; cited from earlier work.
The test system of series [7] is person with myasthenia gravis. The settings on record: 5 grams daily with resistance training 3× per week for 15 weeks; cited from earlier work.
The conditions of series [8]: cited from earlier work. The source holds these as a separate data set.
Series [9] in a line: Conversion of creatine to creatinine in aqueous solutions. The series is classed as physicochemical. The following applies: aqueous solution 0.250 mg/mL.
The nature of series [10]: Stability of creatyl-L-glutamine formulations on storage in glass vials, HPLC assay of C-L-G and creatinine. The series is classed as physicochemical. As to the method: Specifically exemplified herein are three different formulations prepared using stable creatyl-L-glutamine (C-L-G) at a concentration of 1.00 mg/ml between pH 3.0 to 7.0. These formulations are described below.
The above described formulations were stored in glass vials at room temperature (25° C., 77° F.), at refrigerator temperature (4° C., 39° F.) and at elevated temperature (40° C., 104° F.) in vials. These samples were assayed by HPLC at periodic intervals for minimum of 60 days for creatyl-L-glutamine (C-L-G) and creatinine (degradation product of creatine) content. The % recovery results are presented below.

For series [11], the system named is patients with idiopathic PD. The following applies: 20 g/d for the first 5 days and 5 g/d thereafter, 24 sessions of resistance training; cited from earlier work.

As to `CN(CC(=O)O)C(=N)N` [creatine, 2-(carbamimidoyl-methyl-amino) acetic acid], the “adverse effect in long-term supplementation” value in [1] is “No adverse effect”. Moreover, the “average increase in muscle strength, greater than following placebo ingestion” value in series [2] (22 published studies, during resistance training) is 8%. In addition, in series [2] (22 published studies, placebo 12%), the “average increase in muscle strength following creatine supplementation during resistance training” value is recorded as 20%. Further, the “average increase in weightlifting performance, greater than following placebo ingestion” value in series [2] (during resistance training) was 14%. In addition, the “average increase in weightlifting performance (maximal repetitions at a given percent of maximal strength)” value in series [2] (during resistance training, placebo 12%) is on record as 26%. Besides, the adverse health effect result in series [2] (short- or long-term creatine supplementations) is given as “no adverse health effect”. In addition, the skeletal muscle function entry in series [3] was “improves”. Further, the “adverse effects on renal function” value in [4] is on record as “No adverse effects”. In series [5], the dynamic strength entry is listed as “enhances” and the “performance in consecutive maximal swims” value is “improves”. Also, in series [6], the “intelligence (Raven's Advanced Progressive Matrices)” value is “significantly improves” and the “working memory (backward digit span)” value is reported as “significantly improves”. Besides, in series [7], the improved peak strength result is given as “up to 37%”, the “increase in body weight” value is reported as 7% and the “increase in fat free mass” value is recorded as 4%. Also, in series [8] (GI tract), the “degradation in the GI tract into creatinine, estimated rate” value is ~0.1 g of a 5 g dose per hour. In series [8] (typical 70 kg individual), the “non-enzymatic conversion into creatinine” value is “approximately 1.7 % daily”.

In the case of “disodium creatine phosphate tetrahydrate”, the “Creatine Monohydrate” value stood at 0.031 mg/mL in [9] (pH 3.0, 25 C.°, 39 Days); 0.095 mg/mL in series [9] (pH 3.0, 25 C.°, 3 day); 0.092 mg/mL in series [9] (pH 3.0, 25 C.°, 10 days); 0.065 mg/mL in [9] (pH 3.0, 25 C.°, 21 days); 0.000 mg/ml mg/mL in series [9] (pH 3.0, 25 C.°, INITIAL); 0.012 mg/ml mg/mL in series [9] (pH 3.0, 40 C.°, 39 Days). In addition, the “Creatine Monohydrate” value in series [9] (pH 3.0, 40 C.°, 3 day) is recorded as 0.042 mg/mL; in series [9] (pH 3.0, 40 C.°, 10 days), 0.017 mg/mL; in [9] (pH 3.0, 40 C.°, 21 days), 0.011 mg/mL; in series [9] (pH 3.0, 40 C.°, INITIAL) it was 0.004 mg/mL; in series [9] (pH 7.0, 25 C.°, 39 Days), 0.089 mg/mL; in series [9] (pH 7.0, 25 C.°, 10 days) it was 0.041 mg/mL. Further, the “Creatine Monohydrate” value is on record as 0.069 mg/mL in [9] (pH 7.0, 25 C.°, 21 days); 0.00 mg/mL in series [9] (pH 7.0, 25 C.°, INITIAL); 0.108 mg/mL in series [9] (pH 7.0, 40 C.°, 39 Days); 0.042 mg/mL in series [9] (pH 7.0, 40 C.°, 3 day); 0.114 mg/mL in [9] (pH 7.0, 40 C.°, 10 days); 0.122 mg/mL in [9] (pH 7.0, 40 C.°, 21 days). Also, in series [9] (pH 7.0, 40 C.°, INITIAL), the “Creatine Monohydrate” value stood at 0.00 mg/mL. The Creatinine in series [9] (pH 3.0, 25 C.°, 39 Days) amounted to 0.069 mg/mL; in series [9] (pH 3.0, 25 C.°, 3 day), 0.014 mg/mL; in series [9] (pH 3.0, 25 C.°, 10 days), 0.034 mg/mL; in series [9] (pH 3.0, 25 C.°, 21 days) it was 0.050 mg/ml mg/mL; in series [9] (pH 3.0, 25 C.°, INITIAL) it was 0.000 mg/mL; in series [9] (pH 3.0, 40 C.°, 39 Days), 0.081 mg/mL. Further, the Creatinine was 0.054 mg/mL in series [9] (pH 3.0, 40 C.°, 3 day); 0.086 mg/mL in series [9] (pH 3.0, 40 C.°, 10 days); 0.080 mg/ml mg/mL in series [9] (pH 3.0, 40 C.°, 21 days); 0.000 mg/mL in series [9] (pH 3.0, 40 C.°, INITIAL); 0.000 mg/mL in series [9] (pH 7.0, 25 C.°, 39 Days); 0.000 mg/mL in series [9] (pH 7.0, 25 C.°, 3 day). Also, the Creatinine in series [9] (pH 7.0, 25 C.°, 10 days) stood at 0.000 mg/mL; in [9] (pH 7.0, 25 C.°, 21 days) it was 0.000 mg/ml mg/mL; in [9] (pH 7.0, 25 C.°, INITIAL), 0.000 mg/mL; in series [9] (pH 7.0, 40 C.°, 39 Days), 0.030 mg/mL; in series [9] (pH 7.0, 40 C.°, 3 day), 0.004 mg/mL; in [9] (pH 7.0, 40 C.°, 10 days) it was 0.012 mg/mL. Further, the Creatinine came out at 0.020 mg/ml mg/mL in series [9] (pH 7.0, 40 C.°, 21 days) and 0.000 mg/mL in [9] (pH 7.0, 40 C.°, INITIAL).

As to `CN(CC(=O)N[C@@H](CCC(N)=O)C(=O)O)C(=N)N` [creatyl-L-glutamine], in series [10] (elevated temperature (40° C., 104° F.)), the “time composition is stable” value was “more than 30 days”. Further, the “time aqueous solutions remain stable” value is “more than 90 days” in series [10] (refrigerator temperature (4° C., 39° F.)) and “more than 90 days” in series [10] (room temperature (25° C., 77° F.)).

For the compound `CN(CC(=O)O)C(=N)N.O` [Creatine Monohydrate, creatine monohydrate], the “COP Assay” value in series [9] (pH 3.0, 25 C.°, 39 Days) stood at 0.072 mg/mL; in [9] (pH 3.0, 25 C.°, 3 day), 0.219 mg/ml mg/mL; in series [9] (pH 3.0, 25 C.°, 10 days), 0.214 mg/mL; in series [9] (pH 3.0, 25 C.°, 21 days), 0.151 mg/mL; in series [9] (pH 3.0, 25 C.°, INITIAL) it was 0.245 mg/mL; in series [9] (pH 3.0, 40 C.°, 39 Days), 0.030 mg/mL. Moreover, the “COP Assay” value in [9] (pH 3.0, 40 C.°, 3 day) was found to be 0.091 mg/ml mg/mL; in series [9] (pH 3.0, 40 C.°, 10 days), 0.036 mg/mL; in series [9] (pH 3.0, 40 C.°, 21 days), 0.029 mg/mL; in series [9] (pH 3.0, 40 C.°, INITIAL), 0.245 mg/mL; in series [9] (pH 7.0, 40 C.°, 31 Days) it was 0.251 mg/mL; in [9] (pH 7.0, 40 C.°, 3 day), 0.242 mg/ml mg/mL. The “COP Assay” value in series [9] (pH 7.0, 40 C.°, INITIAL) is 0.257 mg/mL. Also, the Creatinine in [9] (pH 3.0, 25 C.°, 39 Days) was 0.154 mg/mL; in series [9] (pH 3.0, 25 C.°, 3 day), 0.026 mg/mL; in series [9] (pH 3.0, 25 C.°, 10 days), 0.072 mg/ml mg/mL; in series [9] (pH 3.0, 25 C.°, 21 days) it was 0.111 mg/mL; in series [9] (pH 3.0, 25 C.°, INITIAL) it was 0.000 mg/mL; in series [9] (pH 3.0, 40 C.°, 39 Days), 0.186 mg/mL. Further, the Creatinine in series [9] (pH 3.0, 40 C.°, 3 day) turned out to be 0.125 mg/mL; in series [9] (pH 3.0, 40 C.°, 10 days) it was 0.177 mg/ml mg/mL; in series [9] (pH 3.0, 40 C.°, 21 days), 0.186 mg/mL; in series [9] (pH 3.0, 40 C.°, INITIAL) it was 0.000 mg/mL; in [9] (pH 7.0, 40 C.°, 31 Days), 0.068 mg/mL; in series [9] (pH 7.0, 40 C.°, 3 day) it was 0.008 mg/mL. Also, the Creatinine in [9] (pH 7.0, 40 C.°, INITIAL) came to 0.000 mg/mL. Moreover, the biceps curl strength result in series [11] is listed as “significantly improved”. For the same compound, the chest press strength entry in series [11] is “significantly improved”.
